Laboratory results: patent publication US7211576B2, “Diaminothiazoles” (Hoffmann-La Roche Inc., priority 2004, dated 2007)

How the values were obtained:
human cyclin D1-CDK4 = human cyclin D1-CDK4 (Homo sapiens, UniProt P11802); assay: FlashPlate kinase assay, cyclin D1-CDK4; assay type: biochemical; details: Rb protein substrate, 1 μM ATP, 33P-ATP, 30 minutes room temperature; read-out: CDK4 IC50
Description: To determine inhibition of Cdk4, Cdk2 and Cdk1 activity, kinase assays were conducted using FlashPlate™ assays (NEN™-Life Science Products). FlashPlate assays were performed using recombinant human cyclin B-CDK1, human cyclin E-CDK2 or human cyclin D1-CDK4 complexes. GST-cyclinE (GST-cycE), CDK2, GST-cyclinB (GST-cycB), CDK1, GST-CDK4 and cyclin D1 (cycD1) cDNA clones in baculovirus vectors were provided by Dr. W. Harper at the Baylor College of Medicine, Houston, Tex.
(§1) The expression of the 62Kd protein was under the control of an IPTG inducible promoter in an M15 E. coli strain. Cells were lysed by sonication and purification was carried out by binding lysates at pH 8.0 to a Ni-chelated agarose column pretreated with 1 mM imidazole. The resin was then washed several times with incrementally decreasing pH buffers to pH 6.0, and eluted with 500 mM imidazole. Eluted protein was dialysed against 20 mM HEPES pH 7.5, 30% glycerol, 200 mM NaCl, and 1 mM DTT. Purified Rb fusion protein stocks were quantitated for protein concentration, aliquoted, and stored at −70° C.
(§2) For all three kinase assays reported herein, 96-well FlashPlates were coated with Rb protein at 10 μg/ml, using 100 μl per well. Plates were incubated at 4° C. overnight or at room temperature for 3 hours on a shaker. To control for nonspecific phosphorylation, one row of wells was coated with 100 μl/well coating buffer (20 mM HEPES, 0.2 M NaCl). Plates were then washed twice with wash buffer (0.01% Tween 20 in phosphate-buffered saline). Compounds to be tested (“test compounds”) were added to the wells at 5× final concentration. Reactions were initiated by immediate addition of 40 μl reaction mix (25 mM HEPES, 20 mM MgCl2, 0.002% Tween 20, 2 mM DTT, 1 μM ATP, 4 nM ^33P-ATP) and a sufficient amount of enzyme to give counts that were at least 10-fold above background. Plates were incubated at room temperature on a shaker for 30 minutes. Plates were washed four times with the wash buffer, sealed, and counted on the TopCount scintillation counter (Packard Instrument Co., Downers Grove, Ill.]. The percent inhibition of Rb phosphorylation, which is a measure of the inhibition of CDK activity, was determined according to the following formula:
[formula] where “test compound” refers to the average counts per minute of the test duplicates, “nonspecific” refers to the average counts per minute when no CyclinD/Cdk4, etc., was added, and “total” refers to the average counts per minute when no compound was added.

human cyclin E-CDK2 = human cyclin E-CDK2 (Homo sapiens, UniProt P24941); assay: FlashPlate kinase assay, cyclin E-CDK2; assay type: biochemical; details: Rb protein substrate, 1 μM ATP, 33P-ATP, 30 minutes room temperature
Description: (§3) To determine inhibition of Cdk4, Cdk2 and Cdk1 activity, kinase assays were conducted using FlashPlate™ assays (NEN™-Life Science Products). FlashPlate assays were performed using recombinant human cyclin B-CDK1, human cyclin E-CDK2 or human cyclin D1-CDK4 complexes. GST-cyclinE (GST-cycE), CDK2, GST-cyclinB (GST-cycB), CDK1, GST-CDK4 and cyclin D1 (cycD1) cDNA clones in baculovirus vectors were provided by Dr. W. Harper at the Baylor College of Medicine, Houston, Tex. Proteins were co-expressed in High Five™ insect cells and the complex was purified on glutathione Sepharose resin (Pharmacia, Piscataway, N.J.) as previously described (Harper, J. W. et al. Cell 1993, 75, 805–816). A 6×-Histidine tagged truncated form of retinoblastoma (Rb) protein (amino acid 386–928) was used as the substrate for the cycD1-CDK4, cycB-CDK1 and the cycE-CDK2 assays (the expression plasmid was provided by Dr. Veronica Sullivan, Department of Molecular Virology, Roche Research Centre, Welwyn Garden City, United Kingdom). The Rb protein is a natural substrate for phosphorylation by CDK4, CDK2 and CDK1 (see Herwig and Strauss Eur. J. Biochem. Vol. 246 (1997) pp. 581–601 and the references cited therein).
as §1, §2
(§4) [formula] where “test compound” refers to the average counts per minute of the test duplicates, “nonspecific” refers to the average counts per minute when no CyclinD/Cdk4, etc., was added, and “total” refers to the average counts per minute when no compound was added. The IC50 value is the concentration of test compound that reduces by 50% the protein-kinase induced incorporation of the radiolabel under the test conditions described.

human cyclin B-CDK1 = human cyclin B-CDK1 (Homo sapiens, UniProt P06493); assay: FlashPlate kinase assay, cyclin B-CDK1; assay type: biochemical; details: Rb protein substrate, 1 μM ATP, 33P-ATP, 30 minutes room temperature
Description: as §3, §1, §2, §4

[1] = test system: HCT116, a colorectal carcinoma cell line; assay: Tetrazolium dye (MTT) proliferation assay; assay type: cell-based; details: Homo sapiens, HCT-116; HCT116 cells, inhibition of cell proliferation
Description: Proliferation was evaluated by the tetrazolium dye assay according to the procedure of Denizot and Lang (Denizot, F. and Lang, R. J Immunol Methods 1986, 89, 271–277). The cell line used was HCT116, a colorectal carcinoma cell line obtained from the American Type Cell Culture Collection (ATCC; Rockville, Md.). The cells were grown in McCoy's 5A medium supplemented with 10% FCS and L-glutamine.
Cells were plated at the appropriate seeding density to give logarithmic growth over the course of the assay in a 96-well tissue culture plate. Plates were incubated overnight at 37° C. in a humidified incubator with 5% CO2. The next day, test compounds were serially diluted to four times the final concentration in the appropriate medium containing 1.2% DMSO. One-fourth final volume of each dilution was added in duplicate to the plates containing cells. The same volume of 1.2% DMSO in medium was added to a row of “control wells” such that the final concentration of DMSO in each well was 0.3%. Wells to which no cells were added served as the “blank.” Wells to which no inhibitor was added served as “no inhibitor control.” The plates were) returned to the incubator, and at set time points (determined by their growth curves) plates were analyzed as described below.
3-(4,5-dimethylthiazole-2-yl)-2,5-diphenyl-2H-tetrazolium bromide (thiazolyl blue; MTT; Sigma) was added to each well to yield a final concentration of 1 mg/ml. Plates were returned to the incubator for 2.5–3 hours at 37° C. The MTT-containing medium was removed and the resulting formazan metabolite was solubilized in 100% ethanol with shaking for 15 minutes at room temperature. Absorbance readings were taken in a microtiter plate reader (Dynatech and Molecular Devices plate readers were used interchangeably) at a wavelength of 570 nm with a 650 nm reference. Percent inhibition (% INH) is calculated by subtracting the absorbance of the blank well from all wells, then subtracting the ratio of the average absorbance of each test duplicate (SAVE) by the average of the controls (CAVE) from 1.00. The final number is then multiplied by 100 (% INH=(1.00−SAVE/CAVE)×100). The concentration at which 50% inhibition of cell proliferation is obtained (the IC50) is determined from the linear regression of a plot of the logarithm of the concentration versus percent inhibition.

human cyclin B-CDK1, sequence (P06493 whole entry): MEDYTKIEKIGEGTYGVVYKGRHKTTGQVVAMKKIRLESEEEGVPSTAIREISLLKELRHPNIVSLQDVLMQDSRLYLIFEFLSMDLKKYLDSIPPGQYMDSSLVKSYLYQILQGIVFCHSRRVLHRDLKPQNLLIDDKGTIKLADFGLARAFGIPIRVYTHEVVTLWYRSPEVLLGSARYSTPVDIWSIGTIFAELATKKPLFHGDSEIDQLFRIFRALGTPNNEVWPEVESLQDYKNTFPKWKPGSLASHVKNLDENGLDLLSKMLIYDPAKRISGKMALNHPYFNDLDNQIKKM
human cyclin B-CDK1, sequence (P14635 whole entry partner): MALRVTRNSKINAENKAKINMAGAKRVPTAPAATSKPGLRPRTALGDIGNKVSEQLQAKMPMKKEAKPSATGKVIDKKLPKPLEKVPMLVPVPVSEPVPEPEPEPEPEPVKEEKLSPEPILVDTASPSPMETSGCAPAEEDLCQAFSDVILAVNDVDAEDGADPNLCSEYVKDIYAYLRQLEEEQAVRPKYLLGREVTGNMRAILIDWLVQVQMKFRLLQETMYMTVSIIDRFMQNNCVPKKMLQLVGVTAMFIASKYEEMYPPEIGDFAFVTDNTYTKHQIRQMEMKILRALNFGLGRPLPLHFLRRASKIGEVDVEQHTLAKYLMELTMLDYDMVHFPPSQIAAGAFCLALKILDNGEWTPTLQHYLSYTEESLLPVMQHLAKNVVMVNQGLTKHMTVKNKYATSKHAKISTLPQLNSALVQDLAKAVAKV
human cyclin D1-CDK4, sequence (P11802 whole entry): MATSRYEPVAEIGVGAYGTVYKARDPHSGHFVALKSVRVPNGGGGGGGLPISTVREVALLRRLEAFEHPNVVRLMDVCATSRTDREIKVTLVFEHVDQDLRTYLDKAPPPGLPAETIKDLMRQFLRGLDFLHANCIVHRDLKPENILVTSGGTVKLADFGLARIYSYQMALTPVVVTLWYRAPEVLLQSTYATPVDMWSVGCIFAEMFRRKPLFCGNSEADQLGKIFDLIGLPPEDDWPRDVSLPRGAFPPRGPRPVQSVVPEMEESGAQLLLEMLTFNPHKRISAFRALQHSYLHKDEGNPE
human cyclin D1-CDK4, sequence (P24385 whole entry partner): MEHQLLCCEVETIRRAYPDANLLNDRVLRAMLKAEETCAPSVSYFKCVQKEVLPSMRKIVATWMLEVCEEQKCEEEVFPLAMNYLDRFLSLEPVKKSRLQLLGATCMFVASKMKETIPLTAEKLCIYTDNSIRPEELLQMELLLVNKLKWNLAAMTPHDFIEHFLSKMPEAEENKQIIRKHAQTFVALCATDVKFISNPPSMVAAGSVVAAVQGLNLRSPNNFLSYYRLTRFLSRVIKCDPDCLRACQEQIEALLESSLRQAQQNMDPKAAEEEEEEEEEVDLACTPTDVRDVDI

IC50 (human cyclin D1-CDK4)	IC50 (human cyclin E-CDK2)	IC50 (human cyclin B-CDK1)	IC50 [1]	Structure (SMILES)
0.029 µM	0.701 µM	0.253 µM	0.568 µM	CCNC1CCN(c2ccc(Nc3nc(N)c(C(=O)c4cccc(F)c4)s3)cc2)C1 (stereo not shown) [Example 132, {4-Amino-2-[4-(3-ethylamino-pyrrolidin-1-yl)-phenylamino]-thiazol-5-yl}-(3-fluoro-phenyl)-methanone]
0.007 µM	3.5 µM	0.5 µM	1.61 µM	CN(C)C1CCN(c2ccc(Nc3nc(N)c(C(=O)c4ccc5c(c4)OCO5)s3)cc2)CC1 [Example 43, {4-Amino-2-[4-(4-dimethylamino-piperidin-1-yl)-phenylamino]-thiazol-5-yl}-benzo[1,3]dioxol-5-yl-methanone]
0.025 µM	–	–	1.61 µM	Cc1cccc(C(=O)c2sc(Nc3ccc(N4CCC(N5CCCCC5)CC4)cc3)nc2N)c1 [Example 111, [4-Amino-2-(4-[1,4′]bipiperidinyl-1′-yl-phenylamino)-thiazol-5-yl]-tolyl-methanone]
0.025 µM	–	1.99 µM	2.7 µM	Cc1cccc(C(=O)c2sc(Nc3ccc(N4CCC(N(C)C)CC4)cc3)nc2N)c1 [Example 110, {4-Amino-2-[4-(4-dimethylamino-piperidin-1-yl)-phenylamino]-thiazol-5-yl}-tolyl-methanone]
5.26 µM	–	4.05 µM	0.015 µM	Nc1nc(Nc2ccc(N3CCC(N4CCCC(O)C4)CC3)cc2)sc1C(=O)c1ccc2c(c1)OCCO2 (stereo not shown) [Example 38, {4-Amino-2-[4-(3-hydroxy-[1,4′]bipiperidinyl-1′-yl)-phenylamino]-thiazol-5-yl}-(2,3-dihydro-benzo[1,4]dioxin-6-yl)-methanone]
0.086 µM	8.03 µM	3.56 µM	–	Nc1nc(Nc2ccc(N3CCC(N4CCCCC4)CC3)cc2)sc1C(=O)c1cc(F)cc(F)c1 [Example 57, [4-Amino-2-(4-[1,4′]bipiperidinyl-1′-yl-phenylamino)-thiazol-5-yl]-(3,5-difluoro-phenyl)-methanone]
0.084 µM	7.84 µM	4.27 µM	–	CN(C)C1CCN(c2ccc(Nc3nc(N)c(C(=O)c4cc(F)cc(F)c4)s3)cc2)CC1 [Example 82, {4-Amino-2-[4-(4-dimethylamino-piperidin-1-yl)-phenylamino]-thiazol-5-yl}-(3,5-difluoro-phenyl)-methanone]
0.1 µM	2.26 µM	0.51 µM	–	Nc1nc(Nc2ccc(N3CCC(N4CCCCC4)CC3)cc2)sc1C(=O)c1cccc([N+](=O)[O-])c1 [Example 89, [4-Amino-2-(4-[1,4′]bipiperidinyl-1′-yl-phenylamino)-thiazol-5-yl]-(3-nitro-phenyl)-methanone]
0.102 µM	5.62 µM	6.23 µM	–	Nc1nc(Nc2ccc(N3CCC(N4CCCC4)CC3)cc2)sc1C(=O)c1ccc(Cl)c(Cl)c1 [Example 69]
0.086 µM	5.83 µM	5.79 µM	–	COc1ccc(C(=O)c2sc(Nc3ccc(N4CCC(N(C)C)CC4)cc3)nc2N)cc1F [Example 42, {4-Amino-2-[4-(4-dimethylamino-piperidin-1-yl)-phenylamino]-thiazol-5-yl}-(3-fluoro-4-methoxy-phenyl)-methanone]
0.058 µM	8.68 µM	4.05 µM	–	Nc1nc(Nc2ccc(N3CCC(N4CCCC(O)C4)CC3)cc2)sc1C(=O)c1ccc(F)c(F)c1 (stereo not shown) [Example 75, {4-Amino-2-[4-(3-hydroxy-[1,4′]bipiperidinyl-1′-yl)-phenylamino]-thiazol-5-yl}-(3,4-difluoro-phenyl)-methanone]
0.053 µM	4.18 µM	1.17 µM	–	Nc1nc(Nc2ccc(N3CCC(N4CCCC4)CC3)cc2)sc1C(=O)c1ccc(O)cc1 [Example 28, {4-Amino-2-[4-(4-pyrrolidin-1-yl-piperidin-1-yl)-phenylamino]-thiazol-5-yl}-(4-hydroxy-phenyl)-methanone]
0.032 µM	–	0.385 µM	1.4 µM	CCNC1CCN(c2ccc(Nc3nc(N)c(C(=O)c4cccc(F)c4)s3)cc2)CC1 [Example 137, {4-Amino-2-[4-(4-ethylamino-piperidin-1-yl)-phenylamino]-thiazol-5-yl}-(3-fluoro-phenyl)-menthanone]
0.055 µM	5.67 µM	3.81 µM	–	CN(C)C1CCN(c2ccc(Nc3nc(N)c(C(=O)c4ccc(O)cc4)s3)cc2)CC1 [Example 46, {4-Amino-2-[4-(4-dimethylamino-piperidin-1-yl)-phenylamino]-thiazol-5-yl}-(4-hydroxy-phenyl)-methanone]
0.067 µM	4.32 µM	11.4 µM	–	CCOC(=O)c1cc2ccc(C(=O)c3sc(Nc4ccc(N5CCC(N6CCCC6)CC5)cc4)nc3N)cc2[nH]1 [Example 124]
0.036 µM	3.34 µM	1.52 µM	–	Nc1nc(Nc2ccc(N3CCC(N4CCOCC4)CC3)cc2)sc1C(=O)c1cccc(O)c1 [Example 103, {4-Amino-2-[4-(4-morpholin-4-yl-piperidin-1-yl)-phenylamino]-thiazol-5-yl}-(3-hydroxy-phenyl)-methanone]
0.008 µM	0.136 µM	0.005 µM	–	COc1cccc(C(=O)c2sc(Nc3ccc(N4CCC(N(C)C)CC4)cc3)nc2N)c1[N+](=O)[O-] [Example 49, {4-Amino-2-[4-(4-dimethylamino-piperidin-1-yl)-phenylamino]-thiazol-5-yl}-(3-methoxy-2-nitro-phenyl)-methanone]
